Measurements taken from PubChem BioAssay (NCI).
Where “and” joins values, the source holds several entries; their conditions need not be identical. Equal values may be shown once.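 48-hour exposure; five concentrations; linearly interpolated endpoints. Abbreviation: GI50, concentration required for 50% inhibition of growth. The concentration for full growth arrest is given as TGI.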

Columns and labels:
Assay in all cases: NCI tumour cell line growth inhibition, 48 h
NCI-H460 lung = tested on: NCI-H460 lung
ACHN renal = tested on: ACHN renal
RPMI-8226 leukemia = tested on: RPMI-8226 leukemia
HL-60(TB) leukemia = tested on: HL-60(TB) leukemia
HT29 colon = tested on: HT29 colon
786-0 renal = tested on: 786-0 renal
HOP-92 NSCLC = tested on: HOP-92 NSCLC
LOX IMVI melanoma = tested on: LOX IMVI melanoma
NCI-H23 lung = tested on: NCI-H23 lung
SR leukemia = tested on: SR leukemia

| SMILES | GI50 (NCI-H460 lung) | TGI (NCI-H460 lung) [µM] | GI50 (ACHN renal) | TGI (ACHN renal) | GI50 (RPMI-8226 leukemia) | TGI (RPMI-8226 leukemia) | GI50 (HL-60(TB) leukemia) | TGI (HL-60(TB) leukemia) [µM] | GI50 (HT29 colon) | TGI (HT29 colon) | GI50 (786-0 renal) | TGI (786-0 renal) | GI50 (HOP-92 NSCLC) [µM] | TGI (HOP-92 NSCLC) [µM] | GI50 (LOX IMVI melanoma) | TGI (LOX IMVI melanoma) | GI50 (NCI-H23 lung) | TGI (NCI-H23 lung) [µM] | GI50 (SR leukemia) | TGI (SR leukemia) [µM] |
| --- | --- | --- | --- | --- | --- | --- | --- | --- | --- | --- | --- | --- | --- | --- | --- | --- | --- | --- | --- | --- |
| Nc1nc(Nc2cccnc2)sc1C(=O)c1ccccc1F | 2.57 µM | 17.9 | 2.53 µM | > 100 µM | 3.06 µM | 7.35 µM | 2.09 µM | 4.81 | 2.96 µM | 31.2 µM | 3.18 µM | > 34.9 µM | 4.16 | > 100 | 2.26 µM | > 100 µM | 2.55 µM | 12.4 | 0.709 µM |  |
| COC(=O)Nc1nc2ccc(C3(c4ccc(F)cc4)OCCO3)cc2[nH]1 | 0.344 µM | > 36.8 | 0.917 µM | > 66.6 µM | 0.427 µM | > 100 µM | 0.242 µM | 0.765 | 0.317 µM | > 100 µM | 0.687 µM | > 100 µM | 0.268 | 58 | 0.732 µM | > 100 µM | 1.14 µM | > 100 | 0.122 µM | > 100 |
| CC1=CC(C)(C)N=C2SC(c3ccc(N)cc3)=NN12 |  | > 100 |  | > 100 µM |  | > 66.3 µM |  | > 53 |  | 98.2 µM |  | > 100 µM |  | > 100 |  | > 100 µM |  | > 100 |  | > 72.1 |
| CC1=CC(=O)C=CC1=O | 32.8 µM and 22.3 µM | 53.4 | 15.9 µM and 2.94 µM | 29.4 µM and 10.1 µM | 5.11 µM and 3.32 µM | 39.9 µM and 102 µM | 2.37 µM and 3.51 µM |  | 16.4 µM and 26.9 µM | 40.9 µM and 69.6 µM | 19.3 µM and 19.1 µM | 33.8 µM and 34.2 µM | 16.7 | 33.4 | 17.9 µM and 14.4 µM | 42.6 µM and 28 µM | 26.6 µM and 20.5 µM | 60 | 1.63 µM and 9.34 µM |  |
| CC(=O)C1Cn2c(nc3ccccc32)C[Se]1 (stereo unspecified) |  | 16.8 |  | 11.4 µM |  | 62.9 µM |  | 5.71 |  | 23.2 µM |  | 9.21 µM |  | 4.72 |  | 12 µM |  | 7.29 |  | 6.96 |
| COc1ccc(-c2[nH]c3ccc(OC)cc3c2/C=C(\C#N)S(=O)(=O)c2ccccc2)cc1 | 0.659 µM | > 26 | 1.79 µM | > 100 µM | 1.28 µM | 6.64 µM | 0.812 µM |  | 0.435 µM | > 32.2 µM | 2.03 µM | > 100 µM | 0.692 | 6.81 | 1.15 µM | > 100 µM | 0.965 µM | > 33.3 | 0.305 µM | 2.6 |
| CCc1nc2cc(F)c(/C=C/C(=O)NO)cc2c(=O)n1CCc1ccccc1 | 0.31 µM | 3.17 | 0.343 µM | 2.56 µM | 0.387 µM | 19.9 µM | 0.415 µM | > 100 | 0.343 µM | 12.1 µM | 0.309 µM | 2.03 µM | 0.33 | 4.87 | 0.208 µM | 0.46 µM | 0.375 µM | 7.07 | 0.354 µM | 53.3 |
| COC(=O)C12CC3CC(CC(C(=O)O)(C3)C1)C2 |  | > 100 |  | > 100 µM |  | > 100 µM |  | > 100 |  | > 100 µM |  | > 100 µM |  | > 100 |  | > 100 µM |  | > 100 |  | > 100 |
| [N-]=[N+]=C1C(=O)NN=C1c1ccccc1 |  | > 100 |  | > 100 µM |  | > 100 µM |  | > 100 |  | > 100 µM |  | > 100 µM |  | > 100 |  | > 100 µM |  | > 100 |  | > 100 |
| Cc1ccc(NC(=O)c2cccc(C(C)(C)C#N)c2)cc1Nc1ccc2ncn(C)c(=O)c2c1 | 2.76 µM | > 100 | 1.73 µM | > 100 µM | 3.25 µM | > 100 µM | 0.0547 µM | 13.9 | 0.032 µM | > 100 µM | 11.6 µM | > 100 µM | 0.287 | 4.98 | 0.0585 µM | > 67.5 µM | 0.304 µM | > 100 | 4.79 µM | > 100 |
| CCc1nc(N)nc(N)c1-c1ccc(NC)c([N+](=O)[O-])c1 |  | > 100 |  | > 100 µM |  | > 43.3 µM |  | > 51.8 |  | 33.7 µM |  | > 100 µM |  | > 86.8 |  | > 100 µM |  | > 100 |  | > 29.4 |
| CN1CCN(CCCNc2nc3ccc(Oc4ccc(NC(=O)Nc5cc(C(F)(F)F)ccc5F)cc4)cc3[nH]2)CC1 | 4.37 µM | 8.4 | 17.5 µM | > 25 µM | 5.88 µM | 14 µM | 5.2 µM | 10.3 | 4.09 µM | 7.93 µM | 5.26 µM | 11.9 µM | 2.91 | 12.1 | 4.25 µM | 7.91 µM | 4.03 µM | 7.9 | 6.33 µM | > 16.8 |
| COc1ccc2[nH]c3c4[nH]c5ccc(OC)cc5c4c4c(c3c2c1)C(=O)NC4=O | > 10.3 µM | > 25 | > 6.71 µM | > 25 µM | 0.998 µM | > 25 µM | > 21.1 µM | > 25 | > 25 µM | > 25 µM | > 12.9 µM | > 25 µM | > 25 | > 25 | > 13.1 µM | > 25 µM | > 14.4 µM | > 25 | 1.29 µM | > 25 |
